From the supplement of paper PMC7017272
± gives the standard deviation of the averaged measurements.

Legend:
[1] = test system: UT-SCC-24A; assay: maximal % inhibition of viability relative to DMSO; higher = stronger effect; settings: treatment time: 3 days
Protocol: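 HNSCC cell lines (500 cells/well, 384-well) were cultured on plastic, on top of (2D) or embedded (3D) in Matrigel or human leiomyoma matrix Myogel (500 ug/mL; Myogel 3D mixed with rat collagen I). Cells were treated for 3 days with 5 ten-fold concentrations of each drug, and viability was read by CellTiter-Glo. Viability was normalised to DMSO (0% inhibition) and 100 uM benzethonium chloride (100% inhibition) controls and fitted with the FIMM DSRT pipeline to give IC50 (nM), maximal % inhibition and the drug sensitivity score (DSS). Suffixes _1/_2/_3 on drug names are replicates.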

[2] = test system: UT-SCC-24B; assay: drug sensitivity score (DSS); higher = more sensitive; extreme values may be limits of the assay; settings: treatment time: 3 days
Outline: (§1)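 Viability of HPV-negative HNSCC cell lines was measured by CellTiter-Glo 2.0 luminescence. Cells were seeded at 500 cells/well in 384-well plates on plastic, on Matrigel- or Myogel-coated wells (500 µg/mL), or embedded in Matrigel or Myogel plus rat collagen I, then given compounds at five 10-fold concentrations for 3 days, with signals normalised to vehicle (0.1% DMSO) and cell-killing control wells. Fitting of percent-inhibition dose–response curves in the FIMM pipeline yielded IC50, maximal inhibition and drug sensitivity score.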

[3] = test system: UT-SCC-28; assay: as above; settings: treatment time: 3 days
Outline: as §1

[4] = test system: UT-SCC-40; assay: as above; settings: treatment time: 3 days
Outline: as §1

[5] = test system: UT-SCC-44; assay: as above; settings: treatment time: 3 days
Outline: as §1

[6] = test system: UT-SCC-73; assay: as above; settings: treatment time: 3 days
Outline: as §1

[7] = test system: UT-SCC-81; assay: as above; settings: treatment time: 3 days
Outline: as §1

[8] = test system: UT-SCC-8; assay: as above; settings: treatment time: 3 days
Outline: as §1

[9] = test system: UT-SCC-106A; assay: relative IC50 (midpoint of the fitted curve; maximal inhibition may be below 50%); higher = less potent; settings: treatment time: 3 days
Outline: as §1

[10] = test system: UT-SCC-14; assay: as above; settings: treatment time: 3 days
Outline: as §1

[11] = test system: UT-SCC-24B; assay: as above; settings: treatment time: 3 days
Outline: as §1

[12] = test system: UT-SCC-28; assay: as above; settings: culture condition: embedded in Matrigel; treatment time: 3 days
Outline: as §1

[13] = test system: UT-SCC-40; assay: as above; settings: treatment time: 3 days
Outline: as §1

[14] = test system: UT-SCC-42A; assay: as above; settings: treatment time: 3 days
Outline: as §1

[15] = test system: UT-SCC-42B; assay: as above; settings: treatment time: 3 days
Outline: as §1

[16] = test system: UT-SCC-44; assay: as above; settings: treatment time: 3 days
Outline: as §1

[17] = test system: UT-SCC-73; assay: as above; settings: treatment time: 3 days
Outline: as §1

[18] = test system: UT-SCC-81; assay: as above; settings: treatment time: 3 days
Outline: as §1

[19] = test system: UT-SCC-8; assay: as above; settings: treatment time: 3 days
Outline: as §1

[20] = culture condition: embedded in Matrigel
[21] = culture condition: embedded in Myogel + collagen I
[22] = culture condition: on top of Matrigel
[23] = culture condition: on top of Myogel
[24] = culture condition: plastic 2D (no matrix)

relative IC50 [9, 20]: 56.8 nM | relative IC50 [9, 24]: 56.3 nM | relative IC50 [10, 20]: 74.2 nM | relative IC50 [10, 22]: 279 nM | relative IC50 [11, 20]: 169 nM | relative IC50 [11, 21]: 165 nM | relative IC50 [11, 22]: 173 nM | relative IC50 [11, 23]: 177 nM | relative IC50 [11, 24]: 117 nM | relative IC50 [12]: 79.9 nM | relative IC50 [13, 20]: 50.9 nM | relative IC50 [13, 21]: 41.5 nM | relative IC50 [13, 22]: 61 nM | relative IC50 [14, 21]: 263 nM | relative IC50 [14, 23]: 111 nM | relative IC50 [15, 20]: 86.8 nM | relative IC50 [15, 22]: 266 nM | relative IC50 [15, 23]: 268 nM | relative IC50 [16, 20]: 95.2 nM | relative IC50 [16, 22]: 108 nM | relative IC50 [16, 23]: 151 nM | relative IC50 [17, 20]: 80 nM | relative IC50 [17, 21]: 78.3 nM | relative IC50 [17, 22]: 83.2 nM | relative IC50 [17, 23]: 122 nM | relative IC50 [17, 24]: 117 nM | relative IC50 [18, 20]: 53.5 nM | relative IC50 [18, 22]: 95.3 nM | relative IC50 [19, 20]: 163 nM | relative IC50 [19, 22]: 176 nM | relative IC50 [19, 23]: 139 nM
Structure (SMILES): Cn1cnc2c(F)c(Nc3ccc(Br)cc3Cl)c(C(=O)NOCCO)cc21 [Selumetinib]
maximal % inhibition of viability [1, 20]: 81.7 ± 2.1% | maximal % inhibition of viability [1, 21]: 59.2 ± 2.4% | maximal % inhibition of viability [1, 22]: 76.7 ± 1.4% | maximal % inhibition of viability [1, 23]: 38.4 ± 3% | maximal % inhibition of viability [1, 24]: 70.2 ± 7.2% | drug sensitivity score [2, 20]: 18.9 ± 1.8 DSS | drug sensitivity score [2, 21]: 18.2 ± 1.7 DSS | drug sensitivity score [2, 22]: 18.6 ± 0.25 DSS | drug sensitivity score [2, 23]: 17.6 ± 0.75 DSS | drug sensitivity score [2, 24]: 21 ± 0.4 DSS | drug sensitivity score [3, 20]: 8.07 ± 4.3 DSS | drug sensitivity score [3, 21]: 4.4 ± 3.9 DSS | drug sensitivity score [3, 22]: 6.2 ± 5.5 DSS | drug sensitivity score [3, 24]: 3.8 ± 3.9 DSS | drug sensitivity score [4, 20]: 22.6 ± 0.71 DSS | drug sensitivity score [4, 21]: 17.6 ± 0.8 DSS | drug sensitivity score [4, 22]: 20.7 ± 0.92 DSS | drug sensitivity score [4, 23]: 11.2 ± 2.4 DSS | drug sensitivity score [4, 24]: 12.6 ± 2.5 DSS | drug sensitivity score [5, 20]: 15.8 ± 5.2 DSS | drug sensitivity score [5, 21]: 4.83 ± 4.2 DSS | drug sensitivity score [5, 22]: 12.3 ± 0.94 DSS | drug sensitivity score [5, 23]: 8.17 ± 1.2 DSS | drug sensitivity score [5, 24]: 7.8 ± 3.5 DSS | drug sensitivity score [6, 20]: 21 ± 2.8 DSS | drug sensitivity score [6, 21]: 13.5 ± 3.5 DSS | drug sensitivity score [6, 22]: 20.2 ± 2.6 DSS | drug sensitivity score [6, 23]: 15.2 ± 1.1 DSS | drug sensitivity score [6, 24]: 17.9 ± 1.4 DSS | drug sensitivity score [7, 20]: 24.4 ± 0.94 DSS | drug sensitivity score [7, 21]: 7.33 ± 6.3 DSS | drug sensitivity score [7, 22]: 19.9 ± 0.72 DSS | drug sensitivity score [7, 23]: 9.93 ± 3.6 DSS | drug sensitivity score [7, 24]: 7.87 ± 8 DSS | drug sensitivity score [8, 20]: 10.1 ± 1.3 DSS | drug sensitivity score [8, 21]: 1.37 ± 2.4 DSS | drug sensitivity score [8, 22]: 9.63 ± 0.58 DSS | drug sensitivity score [8, 23]: 10.3 ± 1.5 DSS | drug sensitivity score [8, 24]: 5.63 ± 2.3 DSS
